The target of this test is T1, SMARCA2 (Homo sapiens, UniProt P51531).
T1 construct: endogenous in cells
The test can be described thus: SMARCA2 HiBiT degradation assay (cellular). It counts as cell-based. To be noted: for Emax: A549, Emax = amount of residual protein remaining in the cell following compound treatment; for DC50: SMARCA2 HiBiT cells, luminescence readout, 11-point titration from 10 μM, 6 hours or 16 hours, read-out: HiBit A549 SMARCA2 IP.

T1 sequence (P51531 whole entry): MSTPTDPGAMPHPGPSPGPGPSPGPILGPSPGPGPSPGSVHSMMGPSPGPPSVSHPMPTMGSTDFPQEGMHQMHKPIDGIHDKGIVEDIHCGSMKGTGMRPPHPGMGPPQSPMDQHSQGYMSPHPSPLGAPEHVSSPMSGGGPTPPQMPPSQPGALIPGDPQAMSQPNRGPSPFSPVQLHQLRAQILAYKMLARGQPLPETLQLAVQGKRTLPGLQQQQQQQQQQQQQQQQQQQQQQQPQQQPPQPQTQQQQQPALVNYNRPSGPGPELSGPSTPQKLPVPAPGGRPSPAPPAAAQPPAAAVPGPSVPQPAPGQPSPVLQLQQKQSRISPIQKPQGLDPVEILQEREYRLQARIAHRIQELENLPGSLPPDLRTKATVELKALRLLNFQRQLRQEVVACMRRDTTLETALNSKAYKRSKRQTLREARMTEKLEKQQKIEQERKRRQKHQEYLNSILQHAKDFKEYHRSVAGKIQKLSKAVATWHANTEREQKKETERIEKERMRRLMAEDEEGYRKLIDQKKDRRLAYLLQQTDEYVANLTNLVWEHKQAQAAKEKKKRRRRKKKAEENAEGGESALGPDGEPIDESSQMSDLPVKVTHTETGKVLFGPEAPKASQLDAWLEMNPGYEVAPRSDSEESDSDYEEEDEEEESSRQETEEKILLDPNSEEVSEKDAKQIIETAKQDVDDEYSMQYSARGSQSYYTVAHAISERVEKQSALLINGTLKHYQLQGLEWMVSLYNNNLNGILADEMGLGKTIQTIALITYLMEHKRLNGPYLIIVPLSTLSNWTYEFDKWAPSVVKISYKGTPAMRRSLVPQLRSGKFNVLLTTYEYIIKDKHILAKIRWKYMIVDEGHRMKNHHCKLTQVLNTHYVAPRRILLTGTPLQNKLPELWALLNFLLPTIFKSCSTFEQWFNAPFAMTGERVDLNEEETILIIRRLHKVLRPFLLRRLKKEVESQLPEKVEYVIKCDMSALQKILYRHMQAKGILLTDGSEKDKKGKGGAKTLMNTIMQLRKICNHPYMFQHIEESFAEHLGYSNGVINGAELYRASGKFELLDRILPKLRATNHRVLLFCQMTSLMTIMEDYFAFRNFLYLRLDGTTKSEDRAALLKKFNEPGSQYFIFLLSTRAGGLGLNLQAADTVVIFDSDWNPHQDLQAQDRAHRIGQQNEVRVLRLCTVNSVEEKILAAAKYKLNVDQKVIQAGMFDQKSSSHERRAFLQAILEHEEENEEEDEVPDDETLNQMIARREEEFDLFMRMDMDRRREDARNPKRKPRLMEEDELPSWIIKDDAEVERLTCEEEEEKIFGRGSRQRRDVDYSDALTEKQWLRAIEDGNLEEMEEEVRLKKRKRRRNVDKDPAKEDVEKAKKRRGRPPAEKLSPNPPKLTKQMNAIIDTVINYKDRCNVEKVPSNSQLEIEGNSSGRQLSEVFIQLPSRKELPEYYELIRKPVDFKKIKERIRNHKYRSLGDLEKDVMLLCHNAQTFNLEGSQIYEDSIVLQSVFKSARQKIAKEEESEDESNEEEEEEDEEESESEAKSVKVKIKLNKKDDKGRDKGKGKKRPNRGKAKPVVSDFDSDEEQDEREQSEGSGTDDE

`Cc1ncsc1-c1ccc([C@H](C)NC(=O)[C@@H]2C[C@@H](O)CN2C(=O)[C@@H](NC(=O)CCCCCCCCCC(=O)N2CCN(CCOc3cccc(N4C5CCC4CN(c4cc(-c6ccccc6O)nnc4N)C5)c3)CC2)C(C)(C)C)cc1` [Example 37, (2S,4R)-1-[(2S)-2-[[11-[4-[2-[3-[3-[3-amino-6-(2-hydroxyphenyl)pyridazin-4-yl]-3,8-diazabicyclo[3.2.1]octan-8-yl]phenoxy]ethyl]piperazin-1-yl]-11-oxo-undecanoyl]amino]-3,3-dimethyl-butanoyl]-4-hydroxy-N-[(1S)-1-[4-(4-methylthiazol-5-yl)phenyl]ethyl]pyrrolidine-2-carboxamide]: the maximal effect (Emax) was 29% and the DC50 worked out at 0.073 µM.
As for `Cc1ncsc1-c1ccc(CNC(=O)[C@@H]2C[C@@H](O)CN2C(=O)[C@@H](NC(=O)CCCCCCCCCCC(=O)N2CCN(CCOc3cccc(C#Cc4cc(-c5ccccc5O)nnc4N)c3)CC2)C(C)(C)C)cc1` [Example 36, (2S,4R)-1-[(2S)-2-[[12-[4-[2-[3-[2-[3-amino-6-(2-hydroxyphenyl)pyridazin-4-yl]ethynyl]phenoxy]ethyl]piperazin-1-yl]-12-oxo-dodecanoyl]amino]-3,3-dimethyl-butanoyl]-4-hydroxy-N-[[4-(4-methylthiazol-5-yl)phenyl]methyl]pyrrolidine-2-carboxamide], the maximum response (Emax) worked out at 49% and the DC50 was found to be 0.838 µM.
For the compound `Cc1ncsc1-c1ccc([C@H](C)NC(=O)[C@@H]2C[C@@H](O)CN2C(=O)[C@@H](NC(=O)CCCCCCCCCCC(=O)N(C)CCCN(C)c2ccc(CCOc3cc(-c4ccccc4O)nnc3N)cc2)C(C)(C)C)cc1` (racemic) [Example 27, N′-[3-[4-[2-[3-amino-6-(2-hydroxyphenyl)pyridazin-4-yl]oxyethyl]-N-methyl-anilino]propyl]-N′-methyl-N-[rac-(1S)-2,2-dimethyl-1-[rac-(2S,4R)-4-hydroxy-2-[[rac-(1S)-1-[4-(4-methylthiazol-5-yl)phenyl]ethyl]carbamoyl]pyrrolidine-1-carbonyl]propyl]dodecanediamide], the Emax stood at 33% and the DC50 is 0.33 µM.
Regarding `Cc1ncsc1-c1ccc([C@H](C)NC(=O)[C@@H]2C[C@@H](O)CN2C(=O)[C@@H](NC(=O)CCCCCCCCCCC(=O)N2CCN(CCOc3cccc(CCOc4cc(-c5ccccc5O)nnc4N)c3)CC2)C(C)(C)C)cc1` [Example 59, (2S,4R)-1-[(2S)-2-[[12-[4-[2-[3-[2-[3-amino-6-(2-hydroxyphenyl)pyridazin-4-yl]oxyethyl]phenoxy]ethyl]piperazin-1-yl]-12-oxo-dodecanoyl]amino]-3,3-dimethyl-butanoyl]-4-hydroxy-N-[(1S)-1-[4-(4-methylthiazol-5-yl)phenyl]ethyl]pyrrolidine-2-carboxamide], the maximal effect (Emax) was 23% and the DC50 worked out at 0.305 µM.
As for `Cc1ncsc1-c1ccc([C@H](C)NC(=O)[C@@H]2C[C@@H](O)CN2C(=O)[C@@H](NC(=O)CCCCCCCCC(=O)N2CCN(C(=O)c3cccc(OC4CN(c5cc(-c6ccccc6O)nnc5N)C4)c3)CC2)C(C)(C)C)cc1` [Example 101, (2S,4R)-1-[(2S)-2-[[10-[4-[3-[1-[3-amino-6-(2-hydroxyphenyl)pyridazin-4-yl]azetidin-3-yl]oxybenzoyl]piperazin-1-yl]-10-oxo-decanoyl]amino]-3,3-dimethyl-butanoyl]-4-hydroxy-N-[(1S)-1-[4-(4-methylthiazol-5-yl)phenyl]ethyl]pyrrolidine-2-carboxamide], the maximal response (Emax) came out at 38% and the DC50 stood at 0.101 µM.
Taken in the same sequence, the figures for `Cc1ncsc1-c1ccc(CNC(=O)[C@@H]2C[C@@H](O)CN2C(=O)[C@@H](NC(=O)CCCCCCCCC(=O)N[C@H]2C[C@H](Oc3cc(-c4ccccc4O)nnc3N)C2)C(C)(C)C)cc1` [Example 95, N-[3-[3-amino-6-(2-hydroxyphenyl)pyridazin-4-yl]oxycyclobutyl]-N′-[(1S)-1-[(2S,4R)-4-hydroxy-2-[[4-(4-methylthiazol-5-yl)phenyl]methylcarbamoyl]pyrrolidine-1-carbonyl]-2,2-dimethyl-propyl]decanediamide] were 50% and 2.44 µM.
In the case of `Cc1ncsc1-c1ccc([C@H](C)NC(=O)[C@@H]2C[C@@H](O)CN2C(=O)[C@@H](NC(=O)CCCCCCCCCCC(=O)N2CCN(CCOc3ccc(N4CCCC(Oc5cc(-c6ccccc6O)nnc5N)C4)cc3)CC2)C(C)(C)C)cc1` (mixture of isomers) [Example 79, rac-(2S,4R)-4-hydroxy-1-[rac-(2S)-2-[[12-[4-[2-[4-[3-[3-amino-6-(2-hydroxyphenyl)pyridazin-4-yl]oxy-1-piperidyl]phenoxy]ethyl]piperazin-1-yl]-12-oxo-dodecanoyl]amino]-3,3-dimethyl-butanoyl]-N-[rac-(1S)-1-[4-(4-methylthiazol-5-yl)phenyl]ethyl]pyrrolidine-2-carboxamide], the Emax amounted to 21% and the DC50 worked out at 0.078 µM.
For the compound `Cc1ncsc1-c1ccc(CNC(=O)[C@@H]2C[C@@H](O)CN2C(=O)[C@@H](NC(=O)CCCCCCCCCC(=O)N2CCN(C(=O)c3cccc(CN4C5CCC4CN(c4cc(-c6ccccc6O)nnc4N)C5)c3)CC2)C(C)(C)C)cc1` [Example 18, (2S,4R)-1-[(2S)-2-[[11-[4-[3-[[3-[3-amino-6-(2-hydroxyphenyl)pyridazin-4-yl]-3,8-diazabicyclo[3.2.1]octan-8-yl]methyl]benzoyl]piperazin-1-yl]-11-oxo-undecanoyl]amino]-3,3-dimethyl-butanoyl]-4-hydroxy-N-[[4-(4-methylthiazol-5-yl)phenyl]methyl]pyrrolidine-2-carboxamide], the maximum response (Emax) was determined as 63% and the DC50 was determined as 0.848 µM.
`Cc1ncsc1-c1ccc([C@H](C)NC(=O)[C@@H]2C[C@@H](O)CN2C(=O)[C@@H](NC(=O)CCCCCCCCC(=O)N2CCN(Cc3cccc(CCOc4cc(-c5ccccc5O)nnc4N)c3)CC2)C(C)(C)C)cc1` [Example 106, (2S,4R)-1-[(2S)-2-[[10-[4-[[3-[2-[3-amino-6-(2-hydroxyphenyl)pyridazin-4-yl]oxyethyl]phenyl]methyl]piperazin-1-yl]-10-oxo-decanoyl]amino]-3,3-dimethyl-butanoyl]-4-hydroxy-N-[(1S)-1-[4-(4-methylthiazol-5-yl)phenyl]ethyl]pyrrolidine-2-carboxamide]: the maximum response (Emax) is 39% and the DC50 stood at 0.346 µM.
Regarding `Cc1ncsc1-c1ccc([C@H](C)NC(=O)[C@@H]2C[C@@H](O)CN2C(=O)[C@@H](NC(=O)CCC(=O)N2CCN(c3ccc(CN4CCCC(Oc5cc(-c6ccccc6O)nnc5N)C4)cc3)CC2)C(C)(C)C)cc1` (mixture of isomers) [Example 39, rac-(2S,4R)-4-hydroxy-1-[rac-(2S)-2-[[4-[4-[4-[[3-[3-amino-6-(2-hydroxyphenyl)pyridazin-4-yl]oxy-1-piperidyl]methyl]phenyl]piperazin-1-yl]-4-oxo-butanoyl]amino]-3,3-dimethyl-butanoyl]-N-[rac-(1S)-1-[4-(4-methylthiazol-5-yl)phenyl]ethyl]pyrrolidine-2-carboxamide], the Emax came out at 48% and the DC50 came out at 0.426 µM.
